Laboratory results published in patent US8426447B2, “Spiro-tricyclic ring compounds as beta-secretase modulators and methods of use” (Amgen Inc., priority 2008, dated 2013).
“And” between values parts separate entries of the source, which are not always exact repeats. Equal values may be shown once.

Tests used:
BACE1 [1] = target: T1, BACE1 (Homo sapiens, UniProt P56817); assay: In Vitro BACE Cell-based Assay (HEK cell assay): Aβ40 in conditioned medium of cells stably expressing Amyloid Precursor Protein, sandwich ELISA
How it was run: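 First, APP-stable cells grow 24 h at 37° C., 5% CO2. Next, test compounds are added for 24 h (10 doses, 0.1% DMSO). Finally, medium Aβ40 is determined by pAb40/6E10 sandwich ELISA with Europium TRF, and IC50 is calculated.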

BACE1 [2] = target: T1, BACE1; assay: In Vitro Enzymatic BACE FRET (Fluorescence Resonance Energy Transfer) Assay; type: biochemical
How it was run: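 Fluorescence read-out after Tris addition raises pH to neutrality and ends the reaction. Before that, a peptide substrate carrying fluorophore and quencher across the BACE cleavage site (50 nM) is incubated with enzyme for one hour at pH 4.2 in acetate containing 10% DMSO and sub-micellar genapol.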

[3] = Table II, Aβ40, 24 h incubation, read-out: HEK cell assay
[4] = Table II, read-out: BACE1 FRET assay
[5] = Table IV, class symbols, read-out: HEK cell assay
[6] = Table IV, class symbols, read-out: BACE1 FRET assay
[7] = Table III, IC50's in uM ranges, read-out: HEK cell assay
[8] = Table III, IC50's in uM ranges, read-out: BACE1 FRET assay
[9] = HEK cell-based assay, Aβ40 in conditioned medium, IC50 class symbols, read-out: HEK cell assay
[10] = in vitro BACE FRET enzyme assay, IC50 class symbols, read-out: BACE1 FRET assay
[11] = Table 1, Aβ40, 24 h incubation, read-out: HEK cell assay
[12] = Table 1, read-out: BACE1 FRET assay
[13] = HEK cells, read-out: HEK cell assay

T1 sequence (P56817 46-501, species assumed): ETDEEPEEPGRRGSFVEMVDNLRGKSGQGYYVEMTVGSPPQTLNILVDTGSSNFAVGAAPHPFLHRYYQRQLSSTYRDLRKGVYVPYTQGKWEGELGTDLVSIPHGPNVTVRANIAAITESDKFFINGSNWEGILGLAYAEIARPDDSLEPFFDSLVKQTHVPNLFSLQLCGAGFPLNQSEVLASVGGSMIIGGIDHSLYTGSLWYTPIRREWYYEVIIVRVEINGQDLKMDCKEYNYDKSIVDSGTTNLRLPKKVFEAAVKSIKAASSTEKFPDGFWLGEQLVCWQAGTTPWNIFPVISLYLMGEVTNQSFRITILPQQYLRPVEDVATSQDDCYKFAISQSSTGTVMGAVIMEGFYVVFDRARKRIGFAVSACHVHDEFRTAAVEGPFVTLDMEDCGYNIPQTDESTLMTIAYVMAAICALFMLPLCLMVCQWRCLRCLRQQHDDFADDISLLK

SMILES	IC50 (BACE1 [1]; [5])	IC50 (BACE1 [2]; [6])	IC50 (BACE1 [2]; read-out: BACE1 FRET assay)	other results
CC(C)(C)CC(=O)c1ccc2c(c1)[C@]1(COC(N)=N1)c1cc(-c3cncnc3)ccc1O2 [compound 48, 1-((4S)-2-amino-7′-(5-pyrimidinyl)spiro[1,3-oxazole-4,9′-xanthen]-2′-yl)-3,3-dimethyl-1-butanone]	–	–	–	IC50 (BACE1 [1]; [3]): 0.1 to 1 µM and < 0.1 µM; IC50 (BACE1 [2]; [4]): 0.1 to 1 µM and < 0.1 µM
NC1=N[C@]2(CO1)c1cc(-c3cccc(OC(F)(F)F)c3)ccc1Oc1ncccc12 [compound 595]	1 to 5 µM	0.1 to 1 µM	–	–
COC(C)(C)C#Cc1cnc2c(c1)[C@@]1(COC(N)=N1)c1cc(-c3cccnc3)ccc1O2 [compound 719]	–	–	0.1 to 1 µM	IC50 (BACE1 [1]; read-out: HEK cell assay): 0.1 to 1 µM
CC(C)(C)CC(O)c1ccc2c(c1)[C@]1(COC(N)=N1)c1cc(-c3ccc(F)nc3)ccc1O2 (some centres unmarked) [162a]	–	–	–	IC50 (BACE1 [1]; [7]): 0.1 to 1 µM; IC50 (BACE1 [2]; [8]): 0.1 to 1 µM
COCC[C@H]1CN(c2ccc3c(c2)[C@]2(COC(N)=N2)c2cc(-c4cccnc4)ccc2O3)CCO1 [compound 361]	–	–	–	IC50 (BACE1 [1]; [9]): < 0.1 µM; IC50 (BACE1 [2]; [10]): 0.1 to 1 µM
Cn1cc(-c2ccc3c(c2)[C@@]2(COC(N)=N2)c2cc(OCC(C)(C)C)ccc2O3)cn1 [Example 82, (4S)-2′-(2,2-dimethylpropoxy)-7′-(1-methyl-1H-pyrazol-4-yl)spiro[1,3-oxazole-4,9′-xanthen]-2-amine]	–	–	–	IC50 (BACE1 [1]; [3]): 1 to 5 µM; IC50 (BACE1 [2]; [4]): 0.1 to 1 µM
CC1(COc2ccc3c(c2)[C@]2(COC(N)=N2)c2cc(C#CC4CC4)ccc2O3)COC1 [compound 197]	–	–	–	IC50 (BACE1 [1]; [7]): < 0.1 µM; IC50 (BACE1 [2]; [8]): < 0.1 µM
CC(C)(C)C#Cc1cnc2c(c1)[C@]1(COC(N)=N1)c1cc(-c3ccnnc3)ccc1O2 [compound 653]	0.1 to 1 µM	< 0.1 µM	–	–
NC1=N[C@]2(CO1)c1cc(-c3cccnc3F)ccc1Oc1c(F)cccc12 [compound 574]	0.1 to 1 µM	< 0.1 µM	–	–
COc1ccc2c(c1)C1(COC(N)=N1)c1cc(-c3cc(Cl)c(C)cc3F)ccc1O2 (centres unmarked) [Example 23, 2′-(5-chloro-2-fluoro-4-methylphenyl)-7′-methoxyspiro[1,3-oxazole-4,9′-xanthen]-2-amine]	–	–	–	IC50 (BACE1 [1]; [11]): > 5 µM; IC50 (BACE1 [2]; [12]): 1 to 5 µM
NC1=N[C@@]2(CO1)c1cc(-c3ccccc3F)ccc1Oc1cnc(Cl)cc12 [compound 425]	–	–	0.1 to 1 µM	IC50 (BACE1 [1]; [13]): > 5 µM
NC1=N[C@@]2(CO1)c1cc(Br)ccc1Oc1ccc(Cl)nc12 [compound 855]	> 5 µM	> 5 µM	–	–
COC(C)(C)C#Cc1ccc2c(c1)[C@@]1(COC(N)=N1)c1cc(-c3cccnc3)cnc1O2 [compound 179]	–	–	–	IC50 (BACE1 [1]; [7]): 0.1 to 1 µM; IC50 (BACE1 [2]; [8]): < 0.1 µM
CC(C)(C)CCc1ccc2c(c1)[C@]1(COC(N)=N1)c1cc(-c3ccc(F)nc3)ccc1O2 [153b]	–	–	–	IC50 (BACE1 [1]; [7]): 0.1 to 1 µM; IC50 (BACE1 [2]; [8]): < 0.1 µM
CN1CCN(c2cc3c(cn2)Oc2ccc(-c4cccnc4)cc2[C@@]32COC(N)=N2)CC1 [compound 444]	–	–	< 0.1 µM	IC50 (BACE1 [1]; [13]): < 0.1 µM
N#Cc1ccccc1Oc1ccc2c(c1)[C@]1(COC(N)=N1)c1cc(-c3cccnc3)ccc1O2 [compound 986]	–	–	0.1 to 1 µM	IC50 (BACE1 [1]; read-out: HEK cell assay): 1 to 5 µM
COc1ccc2c(c1)[C@@]1(COC(N)=N1)c1cc(Br)cc(F)c1O2 [compound 406]	–	–	–	IC50 (BACE1 [1]; [9]): > 5 µM; IC50 (BACE1 [2]; [10]): > 5 µM
Cc1ccc(-n2ccc3c(c2=O)[C@@]2(COC(N)=N2)c2cc(-c4cccnc4)ccc2O3)cc1 [compound 503]	–	–	> 5 µM	IC50 (BACE1 [1]; [13]): 1 to 5 µM
COC(C)(C)C#Cc1cnc2c(c1)[C@@]1(COC(N)=N1)c1cc(-c3ccnnc3)ccc1O2 [compound 681]	–	–	1 to 5 µM	IC50 (BACE1 [1]; read-out: HEK cell assay): > 5 µM
Cc1cc(-c2ccc3c(n2)[C@]2(COC(N)=N2)c2cc(-c4cccnc4F)ccc2O3)ccn1 [compound 401]	–	–	–	IC50 (BACE1 [1]; [9]): < 0.1 µM; IC50 (BACE1 [2]; [10]): 0.1 to 1 µM

SMILES	IC50 (BACE1 [1]; [5])	IC50 (BACE1 [2]; [6])	IC50 (BACE1 [2]; read-out: BACE1 FRET assay)	other results
CC1(C)C=C(c2cc3c(cn2)Oc2ccc(-c4cccnc4F)cc2[C@@]32COC(N)=N2)CCO1 [compound 435]	–	–	–	IC50 (BACE1 [1]; HEK cell assay (uM), HEK cells): < 0.1 µM; IC50 (BACE1 [2]; BACE1 FRET assay (uM)): < 0.1 µM
COC(C)(C)C#Cc1cnc2c(c1)[C@]1(COC(N)=N1)c1cc(-c3cncnc3)ccc1O2 [compound 822]	< 0.1 µM	< 0.1 µM	–	–
N#Cc1cccc(-c2cc3c(cn2)Oc2ccc(-c4cccnc4F)cc2[C@@]32COC(N)=N2)c1 [compound 373]	–	–	–	IC50 (BACE1 [1]; [9]): < 0.1 µM; IC50 (BACE1 [2]; [10]): < 0.1 µM
Cc1ccccc1-c1ccc2c(c1)[C@]1(COC(N)=N1)c1cccnc1O2 [compound 609]	> 5 µM	> 5 µM	–	–
COc1ccc2c(c1)[C@@]1(COC(N)=N1)c1c(ccc(-c3cncnc3)c1F)O2 [compound 816]	> 5 µM	> 5 µM	–	–
Cn1cc(-c2ccc3c(c2)[C@]2(COC(N)=N2)c2cc(-c4cccnc4F)ccc2O3)cn1 [compound 642]	< 0.1 µM	< 0.1 µM	–	–
C[C@H]1OC(N)=N[C@@]12c1cc(OCC(C)(C)C)ccc1Oc1ccc(-c3cncnc3)cc12 [126d]	–	–	–	IC50 (BACE1 [1]; [7]): < 0.1 µM; IC50 (BACE1 [2]; [8]): < 0.1 µM
COc1cc(F)c2c(c1)[C@]1(COC(N)=N1)c1cc(-c3cncnc3)cnc1O2 [compound 584]	> 5 µM	1 to 5 µM	–	–
Cn1cc(-c2cc(F)c3c(c2)[C@]2(COC(N)=N2)c2cc(-c4cccnc4)ccc2O3)cn1 [compound 509, (4S)-4′-fluoro-2′-(1-methyl-1H-pyrazol-4-yl)-7′-(3-pyridinyl)spiro[1,3-oxazole-4,9′-xanthen]-2-amine]	–	–	< 0.1 µM	IC50 (BACE1 [1]; [13]): < 0.1 µM
COC(C)(C)COc1cnc2c(c1)[C@]1(COC(N)=N1)c1cc(-c3ccccc3)ccc1O2 [compound 350]	–	–	–	IC50 (BACE1 [1]; [9]): < 0.1 µM; IC50 (BACE1 [2]; [10]): < 0.1 µM
CCOCC(=O)Nc1ccc2c(c1)[C@@]1(COC(N)=N1)c1cc(OC)ccc1O2 [compound 376]	–	–	–	IC50 (BACE1 [1]; [9]): 0.1 to 1 µM; IC50 (BACE1 [2]; [10]): 0.1 to 1 µM
NC1=NC2(CO1)c1cnccc1Oc1ccc(-c3cccnc3)cc12 (centres unmarked) [compound 648]	1 to 5 µM	1 to 5 µM	–	–
NC1=N[C@]2(CO1)c1cc(-c3ccc(O)cc3)ccc1Oc1ccc(-c3cncnc3)cc12 [compound 890]	0.1 to 1 µM	< 0.1 µM	–	–
NC1=N[C@@]2(CO1)c1ccccc1Oc1ccc(-c3cnc4ccccc4c3)cc12 [compound 628]	> 5 µM	> 5 µM	–	–
COC(C)(C)C#Cc1cc(F)c2c(c1)[C@@]1(COC(N)=N1)c1cc(-c3cncnc3)ccc1O2 [compound 674]	–	–	0.1 to 1 µM	IC50 (BACE1 [1]; read-out: HEK cell assay): 1 to 5 µM
CC(=O)COc1ccc2c(c1)[C@]1(COC(N)=N1)c1cc(-c3cccnc3)cnc1O2 [compound 865]	1 to 5 µM	1 to 5 µM	–	–
COC1CN(c2cc(F)c3c(c2)[C@]2(COC(N)=N2)c2cc(-c4cccnc4)ccc2O3)C1 [compound 474]	–	–	< 0.1 µM	IC50 (BACE1 [1]; [13]): < 0.1 µM
NC1=N[C@@]2(CO1)c1cc(-c3cccnc3)ccc1Oc1ccc(-c3nccs3)cc12 [compound 666]	–	–	< 0.1 µM	IC50 (BACE1 [1]; read-out: HEK cell assay): < 0.1 µM
COc1ccc2c(c1)C1(COC(N)=N1)c1cc(-c3ccccc3C)ccc1O2 (centres unmarked) [Example 32, 2′-methoxy-7′-(2-methylphenyl)spiro[1,3-oxazole-4,9′-xanthen]-2-amine]	–	–	–	IC50 (BACE1 [1]; [11]): 1 to 5 µM; IC50 (BACE1 [2]; [12]): > 5 µM
COc1ccncc1-c1ccc2c(c1)[C@@]1(COC(N)=N1)c1cc(OCC(C)(C)C)ccc1O2 [compound 217]	–	–	–	IC50 (BACE1 [1]; [7]): 1 to 5 µM; IC50 (BACE1 [2]; [8]): 0.1 to 1 µM

Now from value to molecule, other results behind:

IC50 (BACE1 [1]; [5])	IC50 (BACE1 [2]; [6])	IC50 (BACE1 [2]; read-out: BACE1 FRET assay)	SMILES	other results
–	–	< 0.1 µM	CC(C)(O)COc1ccc2c(c1)[C@]1(COC(N)=N1)c1cc(C#CC3CC3)ccc1O2 [compound 937]	IC50 (BACE1 [1]; read-out: HEK cell assay): 0.1 to 1 µM
–	–	< 0.1 µM	NC1=N[C@]2(CO1)c1cc(OCC3CCOCC3)ccc1Oc1ccc(-c3cccnc3)cc12 [compound 933]	IC50 (BACE1 [1]; read-out: HEK cell assay): < 0.1 µM
–	–	0.1 to 1 µM	CC(C)(C)OC(=O)/C=C/c1ccc2c(c1)[C@]1(COC(N)=N1)c1cc(-c3cccnc3)ccc1O2 [compound 995]	IC50 (BACE1 [1]; read-out: HEK cell assay): 1 to 5 µM
1 to 5 µM	1 to 5 µM	–	COc1ccc2c(c1)[C@]1(COC(N)=N1)c1cc(-c3cnc4ccccc4c3)ccc1O2 [compound 633]	–
0.1 to 1 µM	< 0.1 µM	–	CC(C)(C)COc1ccc2c(c1)[C@]1(COC(N)=N1)c1cc(C3CCCCC3)ccc1O2 [compound 802]	–
–	–	< 0.1 µM	NC1=N[C@@]2(CO1)c1cc(-c3cccnc3)ccc1Oc1cnc(C3=CCCCC3)cc12 [compound 789]	IC50 (BACE1 [1]; read-out: HEK cell assay): < 0.1 µM
> 5 µM	> 5 µM	–	CN(C)c1ncc(-c2ccc3c(c2)[C@@]2(COC(N)=N2)c2cc(OCC(C)(C)C)ccc2O3)cn1 [compound 838]	–
0.1 to 1 µM	< 0.1 µM	–	COc1ccc2c(c1)[C@]1(COC(N)=N1)c1cc(NC(=O)c3ccc(Cl)cn3)ccc1O2 [compound 652, N-((4S)-2-amino-7′-methoxyspiro[1,3-oxazole-4,9′-xanthen]-2′-yl)-5-chloro-2-pyridinecarboxamide]	–
–	–	0.1 to 1 µM	CC(C)(C)COc1ccc2c(c1)[C@]1(COC(N)=N1)c1cc(C3=CCCC3)ccc1O2 [compound 731]	IC50 (BACE1 [1]; read-out: HEK cell assay): 1 to 5 µM
< 0.1 µM	< 0.1 µM	–	Cc1c(OCC(C)(C)O)ccc2c1[C@]1(COC(N)=N1)c1cc(-c3cccnc3)ccc1O2 [compound 907]	–
–	–	< 0.1 µM	NC1=N[C@]2(CO1)c1cc(OC[C@@H](O)C(F)(F)F)ccc1Oc1ccc(-c3cccnc3)cc12 [compound 925]	IC50 (BACE1 [1]; read-out: HEK cell assay): 0.1 to 1 µM
–	–	< 0.1 µM	NC1=N[C@@]2(CO1)c1cc(-c3ccc(F)nc3)ccc1Oc1cnc(C3=CCOCC3)cc12 [compound 431, (5S)-3-(3,6-dihydro-2H-pyran-4-yl)-7-(6-fluoro-3-pyridinyl)spiro[chromeno[2,3-c]pyridine-5,4′-[1,3]oxazol]-2′-amine]	IC50 (BACE1 [1]; [13]): < 0.1 µM
